Source: PubChem BioAssay AID330 (DTP/NCI, 2004)
Several values for one entry are separate records, joined by “and”; a condition that tells them apart may be missing. Equal entries are not always repeated. Toxic doses and inconclusive results are not listed.

Test system: P388 leukemia ip, CD2F1 mice, survival T/C
Test: NCI In Vivo Anticancer Drug Screen. Data for tumor model P388 Leukemia (intraperitoneal) in CD2F1 (CDF1) mice
Conditions: endpoint: median survival time, higher = longer survival
Summary of the method: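 Mice carrying the transplanted tumor received test compound or vehicle. Survival was recorded in each group, and the value is the treated-group measurement divided by that of the vehicle-treated control group.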

C=C(CCCCC)C(=O)/C=C/c1ccc(Cl)c(Cl)c1
T/C (dose: 6.25 mg/kg/injection, schedule: Q01DX009 (ip), vehicle: other): 97 % of control | T/C (dose: 12.5 mg/kg/injection, schedule: Q01DX009 (ip), vehicle: other): 107 % of control | T/C (dose: 25.0 mg/kg/injection, schedule: Q01DX009 (ip), vehicle: other): 108 % of control | T/C (dose: 50.0 mg/kg/injection, schedule: Q01DX009 (ip), vehicle: other): 109 % of control

CC(=O)OCC(COC(C)=O)=C1N=C(c2ccccc2)OC1=O
T/C (dose: 100.0 mg/kg/injection, schedule: Q04DX003 (ip), vehicle: saline with Tween-80): 100 % of control | T/C (dose: 200.0 mg/kg/injection, schedule: Q04DX003 (ip), vehicle: saline with Tween-80): 100 % of control | T/C (dose: 400.0 mg/kg/injection, schedule: Q04DX003 (ip), vehicle: saline with Tween-80): 100 % of control

Cc1cc(N/N=C/c2ccc([N+](=O)[O-])cc2)c2cc3c(cc2n1)OCO3
T/C (dose: 12.5 mg/kg/injection, schedule: Q01DX005 (ip), vehicle: Klucel (hydroxypropylcellulose) (HPC)): 100 % of control | T/C (dose: 25.0 mg/kg/injection, schedule: Q01DX005 (ip), vehicle: Klucel (hydroxypropylcellulose) (HPC)): 102 % of control | T/C (dose: 50.0 mg/kg/injection, schedule: Q01DX005 (ip), vehicle: Klucel (hydroxypropylcellulose) (HPC)): 101 % of control and 104 % of control

O=C(NC1=C(N2CC2)C(=O)C(NC(=O)OCCO)=C(N2CC2)C1=O)OCCO
T/C (dose: 0.18 mg/kg/injection, schedule: Q01DX009 (ip), vehicle: saline): 174 % of control | T/C (dose: 0.39 mg/kg/injection, schedule: Q01DX009 (ip), vehicle: saline): 170 % of control | T/C (dose: 0.75 mg/kg/injection, schedule: Q01DX009 (ip), vehicle: saline): 218 % of control | T/C (dose: 1.5 mg/kg/injection, schedule: Q01DX009 (ip), vehicle: saline): 169 % of control and 175 % of control | T/C (dose: 3.0 mg/kg/injection, schedule: Q01DX009 (ip), vehicle: saline): 202 % of control and 211 % of control | T/C (dose: 6.0 mg/kg/injection, schedule: Q01DX009 (ip), vehicle: saline): 239 % of control and 258 % of control

O=C(NN(Cn1c(=S)sc2ccccc21)Cn1c(=S)sc2ccccc21)c1cccc([N+](=O)[O-])c1
T/C (dose: 100.0 mg/kg/injection, schedule: Q01DX001 (ip), vehicle: Klucel (hydroxypropylcellulose) (HPC)): 93 % of control | T/C (dose: 200.0 mg/kg/injection, schedule: Q01DX001 (ip), vehicle: Klucel (hydroxypropylcellulose) (HPC)): 92 % of control | T/C (dose: 400.0 mg/kg/injection, schedule: Q01DX001 (ip), vehicle: Klucel (hydroxypropylcellulose) (HPC)): 113 % of control

O=C(Nc1cccc2ccccc12)OCCN=Cc1ccccc1O.O=C(Nc1cccc2ccccc12)OCCN=Cc1ccccc1O.[Cu]
T/C (dose: 100.0 mg/kg/injection, schedule: Q04DX002 (ip), vehicle: saline with Tween-80): 94 % of control | T/C (dose: 200.0 mg/kg/injection, schedule: Q04DX002 (ip), vehicle: saline with Tween-80): 94 % of control | T/C (dose: 400.0 mg/kg/injection, schedule: Q04DX002 (ip), vehicle: saline with Tween-80): 107 % of control and 94 % of control

CS(=O)(=O)c1cc([N+](=O)[O-])cc([N+](=O)[O-])c1Cl
T/C (dose: 2.5 mg/kg/injection, schedule: Q01DX009 (ip), vehicle: saline with Tween-80): 109 % of control | T/C (dose: 5.0 mg/kg/injection, schedule: Q01DX009 (ip), vehicle: saline with Tween-80): 90 % of control

O=C1Cc2[nH]ccc2C(=O)O1
T/C (dose: 100.0 mg/kg/injection, schedule: Q01DX001 (ip), vehicle: saline with Tween-80): 99 % of control | T/C (dose: 200.0 mg/kg/injection, schedule: Q01DX001 (ip), vehicle: saline with Tween-80): 90 % of control | T/C (dose: 400.0 mg/kg/injection, schedule: Q01DX001 (ip), vehicle: saline with Tween-80): 107 % of control

CCOc1cc2c(cc1C(C)c1ccc(O)c(OC)c1)OCO2 (centres undefined)
T/C (dose: 50.0 mg/kg/injection, schedule: Q01DX005 (ip), vehicle: distilled water + Tween-80): 99 % of control | T/C (dose: 100.0 mg/kg/injection, schedule: Q01DX005 (ip), vehicle: distilled water + Tween-80): 101 % of control | T/C (dose: 200.0 mg/kg/injection, schedule: Q01DX005 (ip), vehicle: distilled water + Tween-80): 104 % of control

Cc1ccc(S(=O)CC(O)c2ccccc2)cc1 (centres undefined)
T/C (dose: 50.0 mg/kg/injection, schedule: Q01DX009 (ip), vehicle: saline with Tween-80): 110 % of control | T/C (dose: 100.0 mg/kg/injection, schedule: Q01DX009 (ip), vehicle: saline with Tween-80): 101 % of control | T/C (dose: 200.0 mg/kg/injection, schedule: Q01DX009 (ip), vehicle: saline with Tween-80): 100 % of control

O=C(NC(=O)c1cccc2ccccc12)NC(=S)c1ccc(Br)cc1
T/C (dose: 12.5 mg/kg/injection, schedule: Q01DX001 (ip), vehicle: saline): 101 % of control | T/C (dose: 25.0 mg/kg/injection, schedule: Q01DX001 (ip), vehicle: saline): 101 % of control | T/C (dose: 50.0 mg/kg/injection, schedule: Q01DX001 (ip), vehicle: saline): 101 % of control

O=C(O)c1cc(NCCO)c(C(=O)O)cc1NCCO
T/C (dose: 50.0 mg/kg/injection, schedule: Q01DX005 (ip), vehicle: saline): 97 % of control | T/C (dose: 100.0 mg/kg/injection, schedule: Q01DX005 (ip), vehicle: saline): 100 % of control | T/C (dose: 200.0 mg/kg/injection, schedule: Q01DX005 (ip), vehicle: saline): 91 % of control
